Values after ≈ are worked out from the molar mass of the structure shown.
Legend:
Format in all cases: cell-based
S. aureus CJ247 = assay: MIC, agar diffusion, S. aureus CJ247; settings: Staphylococcus aureus, read-out: in vitro activities MIC
Source text: (§1) In vitro investigations have shown a relatively high potency of compounds of the invention against all bacteria including gram-positive and gram-negative strains (Staphylococci, Streptococci, Corynebacteriae, Mycobacteriae, Proteus, Propionibacterium, Pseudomonas, Neisseriae, E. coli) and fungal strains (Candida and Aspergillus). […] In addition, the studies of post-antibiotic effects point towards a strong bactericidal effect of the compounds of the invention. […] The potency of new polyaminated fusidic acid analogues is estimated by comparing the inhibition of growth of different microorganisms produced by known concentrations of the analogue to be examined and a reference compound such as fusidic acid. The microbiological assay set up is in agreement with the European Pharmacopoeia 3rd edition (1997). It is an agar diffusion method where the same volume of the tested solution is added to cavities in agar. The inhibition zones are function of the concentration of the fusidic acid analogue used. All assays are run with fusidic acid as reference substance.

S. aureus CJ200 = assay: MIC, agar diffusion, S. aureus CJ200; settings: Staphylococcus aureus, read-out: in vitro activities MIC
Source text: as §1

S. aureus CJ234F = assay: MIC, agar diffusion, S. aureus CJ234F; settings: Staphylococcus aureus; S. aureus CJ234F (MRSA, Fus. resistant); read-out: in vitro activities MIC
Source text: as §1

S. aureus N6 = assay: MIC, agar diffusion, S. aureus N6; settings: Staphylococcus aureus; S. aureus N6 (Fus. resistant); read-out: in vitro activities MIC
Source text: as §1

S. epidermis CK5 = assay: MIC, agar diffusion, S. epidermis CK5; settings: Staphylococcus epidermidis, read-out: in vitro activities MIC
Source text: as §1

[1] = system: Propionibacterium acnes FN33; assay: MIC, agar diffusion, Propionibacterium acnes FN33; settings: Cutibacterium acnes, read-out: in vitro activities MIC
Source text: as §1

[2] = system: Corynebacterium xerosis FF; assay: MIC, agar diffusion, Corynebacterium xerosis FF; settings: read-out: in vitro activities MIC
Source text: as §1

[3] = system: Streptococcus pyogenes EC88; assay: MIC, agar diffusion, Streptococcus pyogenes EC88; settings: read-out: in vitro activities MIC
Source text: as §1

[4] = system: Streptococcus faecium EI19; assay: MIC, agar diffusion, Streptococcus faecium EI19; settings: Enterococcus faecium; Streptococcus faecium EI19 (Penicillin resistant); read-out: in vitro activities MIC
Source text: as §1

E. coli HA165 = assay: MIC, agar diffusion, E. coli HA165; settings: Escherichia coli, read-out: in vitro activities MIC
Source text: as §1

[5] = system: Pseudomonas aeruginosa BA17; assay: MIC, agar diffusion, Pseudomonas aeruginosa BA17; settings: read-out: in vitro activities MIC
Source text: as §1

[6] = system: Saccaromyces cervisiae ZZ7; assay: MIC, agar diffusion, Saccaromyces cervisiae ZZ7; settings: Saccharomyces cerevisiae, read-out: in vitro activities MIC
Source text: as §1

Candida albicans ZA = assay: MIC, agar diffusion, Candida albicans ZA; settings: read-out: in vitro activities MIC
Source text: as §1

Asbergillus niger ZM35 = assay: MIC, agar diffusion, Asbergillus niger ZM35; settings: Aspergillus niger, read-out: in vitro activities MIC
Source text: as §1

S. aureus CJ234R = assay: MIC, agar diffusion, S. aureus CJ234R; settings: Staphylococcus aureus; S. aureus CJ234R (MRSA, Rifampicin resistant); read-out: in vitro activities MIC
Source text: as §1

## CC(=O)O[C@H]1C[C@@]2(C)C(CCC3[C@@]4(C)CC[C@@H](O)[C@@H](C)C4CC[C@@]32C)[C@@H]1[C@H](CCCC(C)C)C(=O)NCCCNCCCN (stereo partly shown) [Compound 131]
S. aureus CJ247
  MIC: 4 µg/mL (≈ 6.47 µM)
S. aureus CJ200
  MIC: 4 µg/mL (≈ 6.47 µM)
S. aureus CJ234F
  MIC: 4 µg/mL (≈ 6.47 µM)
S. aureus N6
  MIC: 4 µg/mL (≈ 6.47 µM)
S. epidermis CK5
  MIC: 4 µg/mL (≈ 6.47 µM)
[1]
  MIC: 4 µg/mL (≈ 6.47 µM)
[2]
  MIC: 4 µg/mL (≈ 6.47 µM)
[3]
  MIC: 4 µg/mL (≈ 6.47 µM)
[4]
  MIC: 4 µg/mL (≈ 6.47 µM)
E. coli HA165
  MIC: 16 µg/mL (≈ 25.9 µM)
[5]
  MIC: 4 µg/mL (≈ 6.47 µM)
[6]
  MIC: 16 µg/mL (≈ 25.9 µM)
Candida albicans ZA
  MIC: 16 µg/mL (≈ 25.9 µM)
Asbergillus niger ZM35
  MIC: 16 µg/mL (≈ 25.9 µM)

## CC(=O)O[C@H]1C[C@@]2(C)C(CCC3[C@@]4(C)CC[C@@H](OS(=O)(=O)O)[C@@H](C)C4CC[C@@]32C)[C@@H]1[C@H](CCCC(C)C)C(=O)NCCCNCCCCNCCCN (stereo partly shown) [Compound 177, 21-N-[3′-({4′-[(3′-aminopropyl)amino]butyl}amino)propyl]-3-OSO3-11-desoxy-17,20,24,25-tetrahydrofusid-21-amide]
S. aureus CJ247
  MIC: 1 µg/mL (≈ 1.3 µM)
S. aureus CJ200
  MIC: 1 µg/mL (≈ 1.3 µM)
S. aureus CJ234F
  MIC: 1 µg/mL (≈ 1.3 µM)
S. aureus N6
  MIC: 4 µg/mL (≈ 5.2 µM)
S. epidermis CK5
  MIC: 1 µg/mL (≈ 1.3 µM)
[1]
  MIC: 1 µg/mL (≈ 1.3 µM)
[2]
  MIC: 1 µg/mL (≈ 1.3 µM)
[3]
  MIC: 4 µg/mL (≈ 5.2 µM)
E. coli HA165
  MIC: 16 µg/mL (≈ 20.8 µM)
[5]
  MIC: 16 µg/mL (≈ 20.8 µM)
[6]
  MIC: 125 µg/mL (≈ 163 µM)
Candida albicans ZA
  MIC: 64 µg/mL (≈ 83.2 µM)
Asbergillus niger ZM35
  MIC: 16 µg/mL (≈ 20.8 µM)

## CC(C)CCCC(C(=O)NCCCCNCCCN)[C@H]1CC[C@@]2(C)C1CCC1[C@@]3(C)CC[C@@H](O)[C@@H](C)C3CC[C@@]12C (stereo partly shown) [Compound 154, 21-N-{4′-[(3′-aminopropyl)amino]butyl}-11-desoxy-16-desacetoxy-17S,20,24,25-tetrahydrofusid-21-amide]
S. aureus CJ247
  MIC: 4 µg/mL (≈ 6.97 µM)
S. aureus CJ200
  MIC: 4 µg/mL (≈ 6.97 µM)
S. aureus CJ234F
  MIC: 4 µg/mL (≈ 6.97 µM)
S. aureus N6
  MIC: 4 µg/mL (≈ 6.97 µM)
S. epidermis CK5
  MIC: 1 µg/mL (≈ 1.74 µM)
[2]
  MIC: 0.5 µg/mL (≈ 0.871 µM)
E. coli HA165
  MIC: 8 µg/mL (≈ 13.9 µM)
[5]
  MIC: 16 µg/mL (≈ 27.9 µM)
[6]
  MIC: > 125 µg/mL
Candida albicans ZA
  MIC: > 125 µg/mL
Asbergillus niger ZM35
  MIC: > 125 µg/mL

## CC(=O)O[C@H]1C[C@@]2(C)C(CCC3[C@@]4(C)CC[C@@H](O)[C@@H](C)C4CC[C@@]32C)[C@@H]1[C@H](CCCC(C)C)C(=O)NCCNCCCNCCN (stereo partly shown) [Compound 133]
S. aureus CJ247
  MIC: 4 µg/mL (≈ 6.18 µM)
S. aureus CJ200
  MIC: 4 µg/mL (≈ 6.18 µM)
S. aureus CJ234F
  MIC: 4 µg/mL (≈ 6.18 µM)
S. aureus N6
  MIC: 4 µg/mL (≈ 6.18 µM)
S. epidermis CK5
  MIC: 4 µg/mL (≈ 6.18 µM)
[1]
  MIC: 4 µg/mL (≈ 6.18 µM)
[2]
  MIC: 4 µg/mL (≈ 6.18 µM)
[3]
  MIC: 4 µg/mL (≈ 6.18 µM)
[4]
  MIC: 4 µg/mL (≈ 6.18 µM)
E. coli HA165
  MIC: 16 µg/mL (≈ 24.7 µM)
[5]
  MIC: 16 µg/mL (≈ 24.7 µM)
[6]
  MIC: 32 µg/mL (≈ 49.5 µM)
Candida albicans ZA
  MIC: 32 µg/mL (≈ 49.5 µM)
Asbergillus niger ZM35
  MIC: 32 µg/mL (≈ 49.5 µM)

## C/C(=C\C(=O)OCCCCCCCCC(=O)O)C[C@@H]1OC[C@H](C[C@@H]2O[C@H]2[C@@H](C)[C@H](C)O)[C@@H](O)[C@H]1O [Mupirocin, reference compound]
S. aureus CJ247
  MIC: 0.5 µg/mL (≈ 0.999 µM)
S. aureus CJ200
  MIC: 1 µg/mL (≈ 2 µM)
S. aureus CJ234R
  MIC: 1 µg/mL (≈ 2 µM)
S. aureus CJ234F
  MIC: 0.5 µg/mL (≈ 0.999 µM)
S. epidermis CK5
  MIC: 0.04 µg/mL (≈ 0.0799 µM)
[3]
  MIC: 1 µg/mL (≈ 2 µM)

## CC(=O)O[C@H]1C[C@@]2(C)C(CCC3[C@@]4(C)CC[C@@H](OS(=O)(=O)O)[C@@H](C)C4CC[C@@]32C)[C@@H]1[C@H](CCCC(C)C)C(=O)NCCCNCCCNCCCN (stereo partly shown) [Compound 180]
S. aureus CJ247
  MIC: 1 µg/mL (≈ 1.32 µM)
S. aureus CJ200
  MIC: 1 µg/mL (≈ 1.32 µM)
S. aureus CJ234F
  MIC: 1 µg/mL (≈ 1.32 µM)
S. aureus N6
  MIC: 1 µg/mL (≈ 1.32 µM)
S. epidermis CK5
  MIC: 4 µg/mL (≈ 5.3 µM)
[1]
  MIC: 1 µg/mL (≈ 1.32 µM)
[2]
  MIC: 1 µg/mL (≈ 1.32 µM)
[3]
  MIC: 16 µg/mL (≈ 21.2 µM)
E. coli HA165
  MIC: 16 µg/mL (≈ 21.2 µM)
[5]
  MIC: 64 µg/mL (≈ 84.8 µM)
[6]
  MIC: 125 µg/mL (≈ 166 µM)
Candida albicans ZA
  MIC: 64 µg/mL (≈ 84.8 µM)
Asbergillus niger ZM35
  MIC: 4 µg/mL (≈ 5.3 µM)

## CC(=O)O[C@H]1C[C@@]2(C)C(C[C@@H](O)C3[C@@]4(C)CC[C@@H](O)[C@@H](C)C4CC[C@@]32C)[C@@H]1[C@H](CCCC(C)C)C(=O)NCCCCNCCCNCCCCN (stereo partly drawn) [Compound 123, 21-N-[4′-({3′-[(4′-aminobutyl)amino]propyl}amino)butyl]-17R,20S,24,25-tetrahydrofasid-21-amide]
S. aureus CJ247
  MIC: 4 µg/mL (≈ 5.56 µM)
S. aureus CJ200
  MIC: 4 µg/mL (≈ 5.56 µM)
S. aureus CJ234F
  MIC: 4 µg/mL (≈ 5.56 µM)
S. aureus N6
  MIC: 4 µg/mL (≈ 5.56 µM)
S. epidermis CK5
  MIC: 4 µg/mL (≈ 5.56 µM)
[1]
  MIC: 4 µg/mL (≈ 5.56 µM)
[2]
  MIC: 4 µg/mL (≈ 5.56 µM)
[3]
  MIC: 4 µg/mL (≈ 5.56 µM)
[4]
  MIC: 4 µg/mL (≈ 5.56 µM)
E. coli HA165
  MIC: 16 µg/mL (≈ 22.2 µM)
[5]
  MIC: 16 µg/mL (≈ 22.2 µM)
[6]
  MIC: 16 µg/mL (≈ 22.2 µM)
Candida albicans ZA
  MIC: 16 µg/mL (≈ 22.2 µM)
Asbergillus niger ZM35
  MIC: 4 µg/mL (≈ 5.56 µM)

From patent publication US20030087887A1, “Novel fusidic acid derivatives” (priority 2001, published 2003)
